Experimental findings from patent US12686668B2, “Leukotriene synthesis inhibitors” (Naegis Pharmaceuticals Inc., priority 2019, dated 2026) are described below.

Experiment [1] relates to LTB4 production in porcine or human whole blood. The experiment is described as follows: Whole blood HPLC assay, inhibition of LTB4 production. Format: cell-based. Conditions: 5 point curve, porcine or human whole blood (not specified). As for the experimental part: Porcine or human whole blood (1 mL) was pre-incubated with a series of concentrations of compound solubilized in DMSO for 30 minutes. Production of leukotrienes were stimulated with the addition of 20 μM calcium ionophore (A23187), diluted from a 4 mM DMSO stock in HBSS, and incubated at room temperature for 20 minutes. In porcine blood 20 μM arachidonic acid was added in addition to the calcium ionophore. The blood was centrifuged at 2,000 rpm for 15 minutes, and the plasma fraction removed for further processing. Plasma samples were diluted with 500 μL acidified water (HCl pH 3.0) and loaded onto C18 SEP-PAK columns (Canadian Lifesciences IS12000) for solid phase extraction. The leukotrienes were analyzed by HPLC using an ACE C18 column (4.5 mm×150 mm, 5 m) eluted with acetonitrile/methanol/water mixture with H3PO4, pH 3.5 (37:26:37) with a flow rate of 1.8 mL/min. The amount of LTB4 (Cayman Chemical, 20110) was calculated based on reference standards and the level of inhibition of LTB4 production induced by the test compounds was calculated relative to control samples. The results provided in Table 3 are IC50 values calculated based on a 5 point curve, where Compound No. refers to the compounds identified in Table 1.

Experiment [2] deals with LTC4 production in MC/9 cells. The experiment in a line: MC/9 HPLC assay, inhibition of LTC4 production. The class given is cell-based. Conditions: Mus musculus; for inhibition at 3 µM: MC9, 3 μM, A23187 stimulated; for inhibition at 1 µM: MC9, Table 2 column 3, no concentration in head (1 μM according to b732), read-out: % Inhibition LTC4. As for the experimental part: (§1) Cultured MC/9 cells (3×10^6 cells) in 1 mL HBSS were pre-incubated with a series of concentrations of compound solubilized in DMSO for 30 minutes. Production of leukotrienes were stimulated with the addition of 1 μM calcium ionophore (A23187), diluted from a 4 mM DMSO stock in HBSS, and incubated at room temperature for 20 minutes. The reaction was stopped with the addition of 500 μL of methanol containing 20 ng/mL prostaglandin B2 as an internal standard. Samples were collected and stored at −20° C. at least 2 hr or overnight before centrifuged at 13,000 rpm for 15 minutes and loaded onto C18 SEP-PAK columns (Canadian Lifesciences IS12000) for solid phase extraction. The leukotrienes were analyzed by HPLC using an ACE C18 column (4.5 mm×150 mm, 5 m) eluted with acetonitrile/methanol/water mixture with H3PO4, pH 3.5 (37:26:37) with a flow rate of 1.8 mL/min. The amount of LTB4 (Cayman Chemical, 20110) and LTC4 (Cayman Chemical, 20210) were calculated based on reference standards and the level of inhibition of LTB4 production induced by the test compounds was calculated relative to control samples. The results are provided in Table 2, where Compound No. refers to the compounds identified in Table 1.

The subject of experiment [3] is LTB4 production in MC/9 cells. The experiment is described as follows: MC/9 HPLC assay, inhibition of LTB4 production. The class given is cell-based. To be noted: Mus musculus, MC9, Table 2 column 4, no concentration in head (1 μM according to b732), read-out: % Inhibition LTB4. As for the experimental part:
as §1

Experiment [4] has as its target T1, recombinant human leukotriene A4 hydrolase enzyme (Homo sapiens, UniProt P09960).
T1 construct: purchased Cayman Chemical 10007817
T1 sequence (P09960 1-611): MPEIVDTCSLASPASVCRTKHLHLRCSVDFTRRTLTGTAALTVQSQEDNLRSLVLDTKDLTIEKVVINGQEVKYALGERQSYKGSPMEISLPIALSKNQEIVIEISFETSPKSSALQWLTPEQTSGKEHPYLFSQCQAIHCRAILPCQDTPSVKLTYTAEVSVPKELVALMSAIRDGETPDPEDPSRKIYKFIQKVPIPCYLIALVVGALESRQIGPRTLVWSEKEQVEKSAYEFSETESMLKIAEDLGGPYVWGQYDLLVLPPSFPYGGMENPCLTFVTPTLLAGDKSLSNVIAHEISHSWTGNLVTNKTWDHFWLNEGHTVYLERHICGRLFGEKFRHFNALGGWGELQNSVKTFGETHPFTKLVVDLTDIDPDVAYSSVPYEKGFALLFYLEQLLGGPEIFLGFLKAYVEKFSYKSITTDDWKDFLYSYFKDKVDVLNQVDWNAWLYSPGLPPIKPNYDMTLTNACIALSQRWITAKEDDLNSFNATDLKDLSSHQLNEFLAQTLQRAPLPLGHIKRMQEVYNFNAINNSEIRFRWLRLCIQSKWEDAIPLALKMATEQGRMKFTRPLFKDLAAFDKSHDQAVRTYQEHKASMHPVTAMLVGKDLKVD
The experiment is described as follows: Amino-peptidase assay, alanine-4-nitroanalide. Conditions: negative values = augmented peptidase activity, read-out: % Inhibition aminopeptidase-Alanine-4-nitroanalide activity of LTA4H (3 μM). Format: biochemical. As for the experimental part:
A series of compound concentrations were pre-incubated in the absence of light with 0.5 μg of recombinant human leukotriene A4 hydrolase enzyme (Cayman Chemical 10007817) in 50 μL assay buffer (50 mM Tris-HCl, 100 mM KCl). The reaction was stimulated by adding 50 μL 6 mM alanine-4-nitroanilide (Sigma Aldrich A9325) in assay buffer. The amount of amino-peptidase activity was measured by determining the change in absorbance at 405 nm due to 4-nitroanaline production and comparing the rate of change to a reference standard (Sigma Aldrich 185310). Amino-peptidase activity was compared to control samples and the level of inhibition was calculated. Compounds that augment peptidase activity are represented by negative values.

As a reminder, the IC50 is the concentration that inhibits the measured activity by half. Low values mean greater potency, high ones weaker potency. What is called inhibition is how much of the control response was suppressed. `CC(O)c1ccc(Oc2nc3ccccc3s2)cc1` (stereo not drawn) [Compound 160, 1-[4-(1,3-benzothiazol-2-yloxy)phenyl]ethanol]: the IC50 in experiment [1] is > 10000 nM. Also, the inhibition at 3 µM in experiment [2] was < 10%.
In the same order, the values of `COc1cc(C(C)(O)C(F)(F)F)ccc1OCc1ccc2ccccc2n1` (stereo not drawn) [Compound 199, 1,1,1-trifluoro-2-[3-methoxy-4-(quinolin-2-ylmethoxy)phenyl]propan-2-ol] are > 10000 nM and 30 to 50%.
Consider `CCC(O)(CCc1ccc(Oc2nc3ccc(S(C)(=O)=O)cc3s2)c(OC)c1)C(F)(F)F` (stereo not drawn) [Compound 106, 1-{3-methoxy-4-[(6-methylsulfonyl-1,3-benzothiazol-2-yl)oxy]phenyl}-3-(trifluoromethyl)pentan-3-ol], for which, in experiment [1], the half-inhibitory concentration (IC50) is > 10000 nM. Also, the inhibition at 1 µM in experiment [3] was in the range of 10 to 30%. In addition, in experiment [2], the inhibition at 3 µM is 30 to 50% and the inhibition at 1 µM was in the range of 10 to 30%.
For the compound `COc1cc(CCC(O)c2ccccc2)ccc1Oc1nc2ccccc2s1` (stereo not drawn) [Compound 132, 3-[4-(1,3-benzothiazol-2-yloxy)-3-methoxyphenyl]-1-phenylpropan-1-ol], the IC50 in experiment [1] is > 10000 nM. Moreover, the inhibition at 1 µM in experiment [3] is > 90%; in experiment [2], 70 to 90%.
With `CCC(O)(CCc1ccc(OCc2ccc3ccccc3n2)c(OC)c1)C(F)(F)F` (stereo not drawn) [Compound 198], the IC50 in experiment [1] is 100 to 1000 nM. Besides, the inhibition at 3 µM in experiment [2] lay within 30 to 50%.
As to `CCC(O)(CCc1ccc(Oc2nc3ccc(OC)cc3s2)c(OC)c1)C(F)(F)F` (stereo not drawn) [Compound 109, 1-{4-[(6-methoxy-1,3-benzothiazol-2-yl)oxy]-3-methoxyphenyl}-3-(trifluoromethyl)pentan-3-ol], the inhibition at 3 µM in experiment [4] was in the range of 0 to 50%. Further, the results for the inhibition at 1 µM in experiment [3] and in experiment [2] were 70 to 90% and 50 to 70%, respectively.
In the case of `COc1cc(Oc2nc3ccccc3s2)ccc1C(O)C(F)(F)F` (stereo not drawn) [Compound 182, 1-{4-[(1,3-benzothiazol-2-yl}oxy]-2-methoxyphenyl}-2,2,2-trifluoroethan-1-ol], the inhibition at 3 µM in experiment [4] was < 25%; in experiment [2] it was 10 to 30%.
With `CC(O)(c1ccc(Oc2nc3ccccc3s2)cc1)C(F)(F)F` (stereo not drawn) [Compound 163, 2-[4-(1,3-benzothiazol-2-yloxy)phenyl]-1,1,1-trifluoropropan-2-ol], the IC50 in experiment [1] is > 10000 nM. The same compound returned an inhibition at 3 µM in experiment [2] of 10 to 30%.
For `COc1cc(C(O)C(F)(F)F)ccc1Oc1nc2c(SC)cccc2s1` (stereo not drawn) [Compound 139, 2,2,2-trifluoro-1-(3-methoxy-4-{[4-(methylsulfanyl)-1,3-benzothiazol-2-yl]oxy}phenyl)ethanol] the same measures were 1000 to 10000 nM and > 90%.
For `CC(O)(c1ccc(OCc2ccc3ccccc3n2)cc1)C(F)(F)F` (stereo not drawn) [Compound 197, 1,1,1-trifluoro-2-[4-(quinolin-2-ylmethoxy)phenyl]propan-2-ol] the same measures were 100 to 1000 nM and > 90%.
Regarding `O=C(O)C1CCCN1Cc1ccc(Oc2nc3ccccc3s2)cc1` (stereo not drawn) [Compound 165, 1-[4-(1,3-benzothiazol-2-yloxy)benzyl]pyrrolidine-2-carboxylic acid], the figures for the inhibition at 3 µM in experiment [4] and in experiment [2] were 50 to 75% and < 10%, respectively.
For `CSc1cccc2sc(Oc3ccc(C(C)O)cc3)nc12` (stereo not drawn) [Compound 176, 1-(4-{[4-(methylsulfanyl)-1,3-benzothiazol-2-yl]oxy}phenyl)ethanol] the same measures were < 25% and < 10%.
As for `CCC(O)(CCc1ccc(OCc2ccc3ccccc3n2)cc1)C(F)(F)F` (stereo not drawn) [Compound 185, 1-[4-(quinolin-2-ylmethoxy)-phenyl]-3-(trifluoromethyl)-pentan-3-ol], in experiment [1], the IC50 is 100 to 1000 nM. In experiment [2], this compound displayed an inhibition at 3 µM of 70 to 90%.
With `CCC(O)(CCc1ccc(Oc2nc3ccccc3n2C)c(OC)c1)C(F)(F)F` (stereo not drawn) [Compound 105, 1-[4-(1-methyl-1H-benzimidazol-2-yloxy)-3-methoxyphenyl]-3-(trifluoromethyl)pentan-3-ol], the inhibition at 3 µM in experiment [4] was 75%. In experiment [2], the inhibition at 3 µM fell in the range of 70 to 90% and the inhibition at 1 µM fell in the range of 30 to 50%.
In the case of `COc1cc(CCC(C)(O)c2ccccc2)ccc1Oc1nc2ccccc2o1` (stereo not drawn) [Compound 128, 4-[4-(1,3-benzoxazol-2-yloxy)-3-methoxyphenyl]-2-phenylbutan-2-ol], the inhibition at 3 µM was < 25% in experiment [4] and < 10% in experiment [2]. The inhibition at 1 µM in experiment [3] and in experiment [2] was < 10% in each case.
For `COc1cc(CCC(C)(O)c2ccccc2)ccc1Oc1nc2ccccc2s1` (stereo not drawn) [Compound 123, 4-[4-(1,3-benzothiazol-2-yloxy)-3-methoxyphenyl]-2-(phenyl)butan-2-ol], the inhibition at 3 µM in experiment [4] is 25 to 50%. For the same compound, the values for the inhibition at 1 µM in experiment [3] and in experiment [2] were 50 to 70% and 10 to 30%, respectively.
On to `COc1cc(C(C)(O)C(F)(F)F)ccc1Oc1nc2ccccc2s1` (stereo not drawn) [Compound 173, 2-[4-(1,3-benzothiazol-2-yloxy)-3-methoxyphenyl]-1,1,1-trifluoropropan-2-ol], for which the inhibition at 3 µM in experiment [4] is 0 to 50%; in experiment [2], 30 to 50%.
As for `CCC(=O)CCc1ccc(Oc2nc3ccccc3o2)c(OC)c1` [Compound 102, 1-[4-(1,3-benzoxazol-2-yloxy)-3-methoxyphenyl]pentan-3-one], the inhibition at 3 µM in experiment [4] was 0 to 50%. Moreover, the inhibition at 1 µM in experiment [3] is > 90%; in experiment [2], 10 to 30%.
`CCC(O)(CCc1ccc(Oc2nc3ccccc3s2)c(F)c1)C(F)(F)F` (stereo not drawn) [Compound 154, 1-[4-(1,3-benzothiazol-2-yloxy)-3-fluorophenyl]-3-(trifluoromethyl)pentan-3-ol]: the values for the inhibition at 3 µM in experiment [4] and in experiment [2] were > 75% and < 10%, respectively. In addition, the inhibition at 1 µM in experiment [3] lay within 50 to 70%; in experiment [2], 30 to 50%.
`CC(O)c1ccc(Oc2nc3c(F)cc(F)cc3s2)cc1` (stereo not drawn) [Compound 180, 1-{4-[(4,6-difluoro-1,3-benzothiazol-2-yl)oxy]phenyl}ethanol]: the values for the inhibition at 3 µM in experiment [4] and in experiment [2] were 50 to 75% and < 10%, respectively.
Turning to `CCOc1cc(CCC(O)(CC)C(F)(F)F)ccc1Oc1nc2ccccc2s1` (stereo not drawn) [Compound 121, 1-[4-(1,3-benzothiazol-2-yloxy)-3-ethoxyphenyl]-3-(trifluoromethyl)pentan-3-ol], the inhibition at 3 µM in experiment [4] was 0 to 50%. The inhibition at 1 µM in experiment [3] and in experiment [2] was 50 to 70% in each case.
